Activity calls are given as the source filed them. The rule behind the calls is not given here. A value given as a limit tells only on which side of the number the result lay.

This note sets out measurements from ChEMBL document CHEMBL5131564, “Discovery of Potent and Selective Receptor-Interacting Serine/Threonine Protein Kinase 2 (RIPK2) Inhibitors for the Treatment of Inflammatory Bowel Diseases (IBDs)” (J Med Chem, 2022).

Series [1] can be described thus: Metabolic stability in human liver microsomes assessed as half life at 1 uM by LC/MS/MS analysis. The series is classed as ADME, Microsome. (In general: Liver microsomes are vesicles of endoplasmic reticulum, rich in cytochrome P450 enzymes.)
Series [2] deals with T1, Receptor-type tyrosine-protein kinase FLT3 (Homo sapiens, UniProt P36888).
T1 sequence (P36888 whole entry): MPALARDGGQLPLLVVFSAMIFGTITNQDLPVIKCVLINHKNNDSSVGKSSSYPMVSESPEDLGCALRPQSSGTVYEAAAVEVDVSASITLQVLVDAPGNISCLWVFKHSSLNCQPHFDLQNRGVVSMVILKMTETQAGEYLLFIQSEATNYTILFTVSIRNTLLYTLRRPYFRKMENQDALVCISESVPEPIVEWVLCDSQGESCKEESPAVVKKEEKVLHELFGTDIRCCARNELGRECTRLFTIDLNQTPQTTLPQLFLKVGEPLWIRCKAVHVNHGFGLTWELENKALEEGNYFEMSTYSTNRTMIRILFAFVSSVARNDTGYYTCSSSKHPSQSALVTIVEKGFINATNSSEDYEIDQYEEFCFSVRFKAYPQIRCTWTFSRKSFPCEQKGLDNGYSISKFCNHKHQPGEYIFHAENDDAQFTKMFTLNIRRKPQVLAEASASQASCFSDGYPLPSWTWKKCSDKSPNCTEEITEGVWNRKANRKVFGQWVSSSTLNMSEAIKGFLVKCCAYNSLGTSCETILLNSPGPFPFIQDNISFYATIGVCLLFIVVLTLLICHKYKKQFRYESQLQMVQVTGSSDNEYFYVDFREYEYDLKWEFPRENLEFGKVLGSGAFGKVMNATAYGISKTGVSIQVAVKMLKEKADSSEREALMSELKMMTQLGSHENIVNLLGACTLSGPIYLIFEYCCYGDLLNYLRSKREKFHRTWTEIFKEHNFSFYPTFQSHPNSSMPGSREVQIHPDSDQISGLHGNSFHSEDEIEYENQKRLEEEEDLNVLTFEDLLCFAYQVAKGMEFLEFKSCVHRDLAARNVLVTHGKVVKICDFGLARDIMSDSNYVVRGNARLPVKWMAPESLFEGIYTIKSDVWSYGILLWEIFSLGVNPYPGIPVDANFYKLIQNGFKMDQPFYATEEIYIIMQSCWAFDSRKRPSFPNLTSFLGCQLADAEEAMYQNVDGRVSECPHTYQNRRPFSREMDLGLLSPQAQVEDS
Put plainly: Inhibition of human FLT3 by kinase assay.

The nature of series [3]: Volume of distribution in Balb/C mouse at 10 mg/kg, iv measured upto 48 hrs by LC-MS/MS analysis. The series is classed as ADME, organism-based. The following applies: in vivo.
The target of series [4] is Mast/stem cell growth factor receptor Kit (Homo sapiens, UniProt P10721). Nature of the series: Inhibition of human KIT by kinase assay.
Mast/stem cell growth factor receptor Kit, sequence (P10721 whole entry): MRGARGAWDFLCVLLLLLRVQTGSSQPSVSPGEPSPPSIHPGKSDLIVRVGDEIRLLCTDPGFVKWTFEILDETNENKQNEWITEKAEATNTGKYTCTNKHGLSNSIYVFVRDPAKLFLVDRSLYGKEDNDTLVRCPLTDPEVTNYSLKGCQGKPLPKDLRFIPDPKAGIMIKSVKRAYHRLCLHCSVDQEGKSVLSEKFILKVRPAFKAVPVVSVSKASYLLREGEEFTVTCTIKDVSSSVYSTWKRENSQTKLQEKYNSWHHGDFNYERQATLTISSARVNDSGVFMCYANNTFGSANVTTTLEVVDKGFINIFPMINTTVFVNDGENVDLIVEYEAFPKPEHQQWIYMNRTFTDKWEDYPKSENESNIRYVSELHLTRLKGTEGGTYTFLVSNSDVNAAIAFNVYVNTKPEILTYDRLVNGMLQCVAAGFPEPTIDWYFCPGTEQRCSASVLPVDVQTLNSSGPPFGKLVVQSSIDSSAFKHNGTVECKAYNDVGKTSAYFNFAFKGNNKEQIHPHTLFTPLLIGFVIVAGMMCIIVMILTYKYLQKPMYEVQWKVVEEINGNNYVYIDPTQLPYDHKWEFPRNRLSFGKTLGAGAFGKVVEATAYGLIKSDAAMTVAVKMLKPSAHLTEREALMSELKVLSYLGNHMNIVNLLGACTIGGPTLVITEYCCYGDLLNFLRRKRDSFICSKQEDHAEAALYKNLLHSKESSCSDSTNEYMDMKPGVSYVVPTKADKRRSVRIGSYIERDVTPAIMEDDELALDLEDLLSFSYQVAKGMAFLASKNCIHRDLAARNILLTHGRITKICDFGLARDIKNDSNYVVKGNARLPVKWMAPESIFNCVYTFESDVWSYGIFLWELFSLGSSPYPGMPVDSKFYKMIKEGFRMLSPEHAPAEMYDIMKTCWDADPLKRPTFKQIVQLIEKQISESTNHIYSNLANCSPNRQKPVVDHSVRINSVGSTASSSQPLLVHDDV
Series [5] in a line: Inhibition of LPS/MDP-stimulated TNFalpha production in C57BL/6J mouse BMDM cells by ELISA relative to control. The series is classed as functional, cell-based. Background: An ELISA detects its analyte on a solid surface through an enzyme-linked reagent.
Series [6] concerns the target Epithelial discoidin domain-containing receptor 1 (Homo sapiens, UniProt Q08345). Put plainly: Inhibition of human DDR1 by kinase assay.
The nature of series [7]: Elimination half life in Balb/C mouse at 10 mg/kg, po measured upto 48 hrs by LC-MS/MS analysis. The series is classed as ADME, organism-based. The following applies: in vivo, read-out: beta t1/2 (converted).
Series [8] in a line: Clearance in Balb/C mouse plasma at 10 mg/kg, iv measured upto 48 hrs by LC-MS/MS analysis. The series is classed as ADME, organism-based.
Series [9] deals with T2, Dual serine/threonine and tyrosine protein kinase (Homo sapiens, UniProt Q6XUX3).
T2 sequence (Q6XUX3 whole entry): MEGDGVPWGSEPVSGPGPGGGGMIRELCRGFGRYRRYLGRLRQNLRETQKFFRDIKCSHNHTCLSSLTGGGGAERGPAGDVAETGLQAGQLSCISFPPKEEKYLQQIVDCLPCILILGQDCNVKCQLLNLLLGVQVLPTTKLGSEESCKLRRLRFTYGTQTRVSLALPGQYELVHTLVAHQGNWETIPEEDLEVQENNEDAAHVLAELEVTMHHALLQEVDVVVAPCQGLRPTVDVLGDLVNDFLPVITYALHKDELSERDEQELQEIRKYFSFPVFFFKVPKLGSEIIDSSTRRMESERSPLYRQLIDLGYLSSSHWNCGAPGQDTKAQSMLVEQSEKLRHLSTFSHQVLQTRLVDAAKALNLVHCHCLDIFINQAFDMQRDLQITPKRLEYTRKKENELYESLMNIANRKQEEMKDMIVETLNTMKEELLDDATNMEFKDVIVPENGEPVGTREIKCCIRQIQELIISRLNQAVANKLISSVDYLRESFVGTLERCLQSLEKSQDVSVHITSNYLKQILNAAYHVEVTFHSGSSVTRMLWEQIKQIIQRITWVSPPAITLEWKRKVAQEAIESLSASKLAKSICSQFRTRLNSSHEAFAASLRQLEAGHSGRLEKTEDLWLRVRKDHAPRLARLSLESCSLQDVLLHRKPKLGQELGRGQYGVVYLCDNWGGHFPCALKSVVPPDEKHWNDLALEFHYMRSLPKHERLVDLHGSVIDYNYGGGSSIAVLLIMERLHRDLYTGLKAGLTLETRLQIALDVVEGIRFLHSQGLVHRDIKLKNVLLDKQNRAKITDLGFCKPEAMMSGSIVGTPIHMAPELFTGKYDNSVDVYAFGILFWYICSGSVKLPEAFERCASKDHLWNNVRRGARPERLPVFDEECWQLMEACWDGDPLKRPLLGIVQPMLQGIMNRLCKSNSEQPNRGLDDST
Put plainly: Binding affinity to human RIPK5.

Series [10] relates to Mus musculus. Put plainly: Anti-inflammatory activity against DSS-induced acute ulcerative colitis C57BL/6 mouse model assessed as reduction in fecal occult blood at 20 to 40 mg/kg, po once a day measured after 2 days followed by 7 days after DSS treatment. The series is classed as functional, organism-based. The following applies: dose 20-40 mg/kg, time 2.0 day.
The test system of series [11] is Mus musculus. Put plainly: Anti-inflammatory activity against DSS-induced acute ulcerative colitis C57BL/6 mouse model assessed as reduction in disease severity at 20 to 40 mg/kg, po once a day measured after 2 days followed by 7 days after DSS treatment. The series is classed as functional, organism-based. The settings on record: dose 20-40 mg/kg, time 2.0 day.

Series [12] is described as follows: Toxicity in rat H9c2 cells assessed as inhibitory rate. The series is classed as cell-based.
Series [13] can be described thus: AUC (0 to t) in Balb/C mouse at 10 mg/kg, iv measured upto 48 hrs by LC-MS/MS analysis. The series is classed as ADME, organism-based. Set-up: time < 48 hrs, dose 10 mg/kg, route iv. The following applies: in vivo.

Epithelial discoidin domain-containing receptor 1, sequence (Q08345 whole entry, the tested form may be a part): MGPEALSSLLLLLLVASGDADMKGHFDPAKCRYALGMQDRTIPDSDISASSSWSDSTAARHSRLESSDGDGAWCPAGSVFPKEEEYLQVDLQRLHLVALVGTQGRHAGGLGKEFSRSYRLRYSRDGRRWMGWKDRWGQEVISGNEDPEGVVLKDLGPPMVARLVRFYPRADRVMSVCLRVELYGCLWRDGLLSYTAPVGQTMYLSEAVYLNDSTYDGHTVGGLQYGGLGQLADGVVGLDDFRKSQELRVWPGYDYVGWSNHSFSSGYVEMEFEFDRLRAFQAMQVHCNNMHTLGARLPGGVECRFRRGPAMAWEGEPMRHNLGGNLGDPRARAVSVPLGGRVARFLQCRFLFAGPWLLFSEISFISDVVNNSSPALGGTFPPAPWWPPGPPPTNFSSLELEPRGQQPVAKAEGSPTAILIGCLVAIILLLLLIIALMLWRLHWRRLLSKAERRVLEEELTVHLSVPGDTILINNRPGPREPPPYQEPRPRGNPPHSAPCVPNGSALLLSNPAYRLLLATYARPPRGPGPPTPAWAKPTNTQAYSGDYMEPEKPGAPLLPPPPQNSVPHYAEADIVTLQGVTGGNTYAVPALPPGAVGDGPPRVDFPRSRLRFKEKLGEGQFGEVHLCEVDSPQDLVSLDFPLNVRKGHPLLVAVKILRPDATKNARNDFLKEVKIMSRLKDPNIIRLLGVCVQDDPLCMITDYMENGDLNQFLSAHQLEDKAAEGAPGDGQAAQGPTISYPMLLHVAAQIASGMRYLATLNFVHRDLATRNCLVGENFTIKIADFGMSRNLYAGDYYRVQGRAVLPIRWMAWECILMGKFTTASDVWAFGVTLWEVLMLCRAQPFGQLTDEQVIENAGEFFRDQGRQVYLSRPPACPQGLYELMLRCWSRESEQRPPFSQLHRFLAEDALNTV

As for `Cc1ccc(-c2cn([C@H]3CC[C@@H](N)CC3)c3ncnc(N)c23)c(F)c1`, the half-life at 1 µM in series [1] was above 2 h. Besides, the IC50 in series [2] turned out to be 4780 nM; in series [4], 1510 nM; in series [5], 0.3 nM; in [6], 15 nM; in series [12], 12300 nM. The Vd in series [3] was 43.9 L/kg. Besides, in series [7], the half-life is 3.62 h. The clearance in series [8] is 166 mL/min/kg. The molecule also had a Kd in [9] of 670 nM. The outcome in the series on Mus musculus [10] and with Mus musculus [11] was Active. The same molecule showed an AUC(0-t) at 48 h in [13] of 1000 ng·h/mL.

Broadly, the IC50 is the point on the concentration scale where inhibition reaches its midpoint. What is called Vd is a proportionality between amount in the body and measured concentration, not a real space. Read a low Vd as little distribution into tissue. The clearance is the rate of elimination divided by the concentration. Broadly, the Kd is the free concentration of one partner at which half of the binding sites on the other are occupied at equilibrium, for simple one-to-one binding. The AUC(0-t) is exposure summed from dosing to a finite time, without extrapolation to infinity. The low end stands for low exposure, the high end for high exposure.
